Laboratory results from patent publication US20090312384A1, “Benzimidazole As Cooling Compounds” (priority 2006, published 2009).

Experiments:
panelists = assay: Panel tasting of aqueous solutions for cooling intensity versus menthol at 2 ppm; format: in vivo; settings: aqueous solution; concentration with cooling intensity similar or slightly higher than a solution of menthol at 2 ppm
From the text: Experiments on cooling properties/intensities.
A group of panelists was asked to taste various aqueous solutions of compounds of formula (I) and to indicate which solutions had cooling intensities similar or slightly higher than that of a solution of menthol at 2 ppm.

panelist = assay: Application in toothpaste: panelist's teeth brushed with toothgel containing the cooling compound; format: in vivo; settings: 0.20 g of 5% (w/w) ethanol solution in opaque toothgel with peppermint oil and saccharin, after brushing and rinsing
Procedure: [table] The chemicals were mixed in the toothgel, a piece of toothgel was put on a toothbrush and a panelist's teeth were brushed. The mouth was rinsed with water and the water was spit out. […] The cooling perception lasted for 90 minutes.

Row | Compound | melting point | Concentration (panelists) | Duration of cooling perception (panelist) | Cooling sensation felt by the panelist (panelist; all areas of the mouth)
1 | COc1ccc(C(=O)OC(=Cc2nc3ccccc3n2C)c2ccc(OC)cc2)cc1 [1-(4-methoxyphenyl)-2-(1-methyl-1H-benzo[d]imidazol-2-yl)vinyl 4-methoxybenzoate] |  | 0.5 ppm |  | 
2 | CC1CCC(C(C)C)C(O)C1 (stereo not drawn) [Example 1-Menthol, 1-Menthol, reference compound] |  | 2 ppm solution |  | 
3 | Cc1ccc(C(=O)OC(=Cc2nc3ccccc3n2C)c2ccc(C)cc2)cc1 [Example 8, 2-(1-methyl-1H-benzo[d]imidazol-2-yl)-1-p-tolylvinyl 4-methylbenzoate] |  | 2.0 ppm |  | 
4 | CCNC(=O)C1CC(C)CCC1C(C)C (stereo not drawn) [N-ethyl p-menthanecarboxamide (WS-3), N-ethyl p-menthanecarboxamide, reference compound] |  | 1.5 ppm |  | 

Further lines, with some results ahead:

Row | melting point | Compound | Concentration (panelists) | Duration of cooling perception (panelist) | Cooling sensation felt by the panelist (panelist; all areas of the mouth)
5 | 155 to 160 °C | COc1ccc(C(=O)OC(=Cc2nc3cc(C)ccc3n2C(C)C)c2ccc(Cl)cc2)cc1 [Example 2, 1-(4-chlorophenyl)-2-(1-isopropyl-5-methyl-1H-benzo[d]imidazol-2-yl)vinyl 4-methoxybenzoate] |  |  | 
6 | 147 to 152 °C | COc1ccc(C(=O)OC(=Cc2nc3cc(C)ccc3n2C(C)C)c2ccc(OC)cc2)cc1 [Example 3, 2-(1-isopropyl-5-methyl-1H-benzo[d]imidazol-2-yl)-1-(4-methoxyphenyl)vinyl 4-methoxybenzoate] | 0.5 ppm |  | 
7 | 158 to 165 °C | Cc1ccc2nc(C=C(OC(=O)c3ccc(Cl)cc3)c3ccc(Cl)cc3)n(C(C)C)c2c1 [Example 4, 1-(4-chlorophenyl)-2-(1-isopropyl-6-methyl-1H-benzo[d]imidazol-2-yl)vinyl 4-chlorobenzoate] |  |  | 
8 | 125 to 130 °C | COc1ccc(C(=O)OC(=Cc2nc3ccc(C)cc3n2C(C)C)c2ccc(OC)cc2)cc1 [Example 5, 2-(1-isopropyl-6-methyl-1H-benzo[d]imidazol-2-yl)-1-(4-methoxyphenyl)vinyl 4-methoxybenzoate] | 0.5 ppm | 90 min | intense cooling sensation
